Values after ≈ are worked out from the molar mass of the structure shown.
What was measured:
Mtb = test: M. tuberculosis MIC, microtiter broth dilution (Table 6); type: cell-based, Mycobacterium tuberculosis; conditions: for MIC: Mycobacterium tuberculosis
Method: (§1) (provided by Leonid Heifets).
(§2) Each isolate was tested in duplicate.

Mtb Erdman = Mtb Erdman MIC, microtiter broth dilution; type: cell-based, Mycobacterium tuberculosis
Method: as §1, §2

Mtb 5 = type: cell-based, Mycobacterium tuberculosis; conditions: XDR strain
Mtb 365 = type: cell-based, Mycobacterium tuberculosis; conditions: MDR strain
Mtb 276 = type: cell-based, Mycobacterium tuberculosis; conditions: MDR strain
Mtb 352 = type: cell-based, Mycobacterium tuberculosis; conditions: MDR strain
Mtb 56 = type: cell-based, Mycobacterium tuberculosis; conditions: MDR strain
Mtb C-31 = type: cell-based, Mycobacterium tuberculosis; conditions: MDR strain
MtbDHFR = MtbDHFR (Mycobacterium tuberculosis (strain ATCC 25618 / H37Rv), UniProt P9WNX1); test: M. tuberculosis DHFR enzyme inhibition; type: biochemical
[1] = tested on: S. aureus ATCC strain 43300; test: microbe, parasite or virus in culture; type: cell-based, Staphylococcus aureus; conditions: for MIC Sa43300: Table 12, wild-type strain
Sa(H30N) strain [2] = tested on: Sa(H30N) strain
[3] = tested on: wild-type Gram-negative E. coli; conditions: background; cited from earlier work
[4] = tested on: methicillin-resistant S. aureus (MRSA); conditions: background; cited from earlier work
Sa(H30N) strain [5] = test: microbe, parasite or virus in culture; conditions: Staphylococcus aureus, read-out: MIC Sa(H30N)

Row | SMILES | MIC Mtb (Mtb) | MIC Mtb Erdman (Mtb Erdman) | MIC Mtb 5 (Mtb 5) | MIC Mtb 365 (Mtb 365) | MIC Mtb 352 (Mtb 352) | MIC Mtb56 (Mtb 56) | MIC Mtb C-31 (Mtb C-31) | IC50 (MtbDHFR) | MIC Sa43300 [1] | MIC Sa(H30N) (Sa(H30N) strain [2]) | further results
1 | CCc1nc(N)nc(N)c1C#CC(C)c1cc2c(c(-c3cncn3C)c1)OCO2 (stereo not drawn) [Compound 54] | 2 µg/mL (≈ 5.12 µM) | 4 µg/mL (≈ 10.2 µM) | 8 µg/mL (≈ 20.5 µM) | 8 µg/mL (≈ 20.5 µM) | 4 µg/mL (≈ 10.2 µM) | 8 µg/mL (≈ 20.5 µM) | 8 µg/mL (≈ 20.5 µM) | – | – | – | MIC Mtb 276 (Mtb 276): 4 µg/mL (≈ 10.2 µM)
2 | CCc1nc(N)nc(N)c1C#C[C@H](C)c1cc2c(c(-c3ccncc3)c1)OCO2 [Compound 55] | 4 µg/mL (≈ 10.3 µM) | 8 µg/mL (≈ 20.6 µM) | 8 µg/mL (≈ 20.6 µM) | 4 µg/mL (≈ 10.3 µM) | 8 µg/mL (≈ 20.6 µM) | 8 µg/mL (≈ 20.6 µM) | 16 µg/mL (≈ 41.3 µM) | 206 nM | – | – | MIC Mtb 276 (Mtb 276): 8 µg/mL (≈ 20.6 µM)
3 | CCc1nc(N)nc(N)c1C#CCc1cc(-c2cncn2C)ccc1OC [Compound 56] | 2 µg/mL (≈ 5.52 µM) | 4 µg/mL (≈ 11 µM) | 4 µg/mL (≈ 11 µM) | 4 µg/mL (≈ 11 µM) | 4 µg/mL (≈ 11 µM) | 4 µg/mL (≈ 11 µM) | 8 µg/mL (≈ 22.1 µM) | 126 nM | – | – | MIC Mtb 276 (Mtb 276): 4 µg/mL (≈ 11 µM)
4 | CCc1nc(N)nc(N)c1C#C[C@@H](C)c1cc(-c2ccncc2)ccc1OC [Compound 57] | 2 µg/mL (≈ 5.36 µM) | – | – | – | – | – | – | 73 nM | – | – | –
5 | CCc1nc(N)nc(N)c1C#CC(C)c1cc(OC)cc(-c2ccc(C(=O)O)cc2)c1 (stereo not drawn) [Compound 58] | <0.03 µg/mL | <0.03 µg/mL | 0.25 µg/mL (≈ 0.6 µM) | <0.03 µg/mL | 0.06 µg/mL (≈ 0.144 µM) | 0.06 µg/mL (≈ 0.144 µM) | 8 µg/mL (≈ 19.2 µM) | – | – | – | –
6 | CCc1nc(N)nc(N)c1C#CCc1ccc(OC)c(-c2ccc(C(=O)O)cc2)c1 [Compound 59] | 0.5 µg/mL (≈ 1.24 µM) | 0.5 µg/mL (≈ 1.24 µM) | 2 µg/mL (≈ 4.97 µM) | 0.125 µg/mL (≈ 0.311 µM) | 0.5 µg/mL (≈ 1.24 µM) | 0.5 µg/mL (≈ 1.24 µM) | 8 µg/mL (≈ 19.9 µM) | 460 nM | – | – | –
7 | CCc1nc(N)nc(N)c1C#CCc1cc(OC)c(OC)c(-c2ccncc2)c1 [Compound 60] | – | – | – | – | – | – | – | – | 0.0195 µg/mL (≈ 0.0501 µM) | 0.625 µg/mL (≈ 1.6 µM) | –
8 | CCc1nc(N)nc(N)c1C#CC(C)c1cc2c(c(-c3ccncc3)c1)OCO2 (stereo not drawn) [Compound B, reference compound] | – | – | – | – | – | – | – | – | 0.0781 µg/mL (≈ 0.202 µM) | 5 µg/mL (≈ 12.9 µM) | –
9 | CCc1nc(N)nc(N)c1C#CC(C)c1cc(OC)cc(-c2ccncc2)c1 (stereo not drawn) [Compound D, reference compound] | – | – | – | – | – | – | – | – | 0.0391 µg/mL (≈ 0.105 µM) | 0.625 µg/mL (≈ 1.67 µM) | –
10 | CCc1nc(N)nc(N)c1C#C[C@@H](C)c1cc(-c2ccncc2)ccc1OC [E, reference compound] | – | – | – | – | – | – | – | – | 0.0195 µg/mL (≈ 0.0522 µM) | 0.625 µg/mL (≈ 1.67 µM) | –
11 | CCc1nc(N)nc(N)c1C#CC(C)c1cc2c(c(-c3ccncc3)c1)OCO2 (stereo not drawn) [F, reference compound] | – | – | – | – | – | – | – | – | 0.0195 µg/mL (≈ 0.0503 µM) | 2.5 µg/mL (≈ 6.45 µM) | –
12 | NNC(=O)c1ccncc1 [INH, Isoniazid, reference compound] | – | – | – | – | – | – | – | – | – | – | MIC (Mtb): 0.03 µg/mL (≈ 0.219 µM); MIC (Mtb Erdman; Mycobacterium tuberculosis, ERDMAN): 0.125 µg/mL (≈ 0.911 µM)
13 | COc1cc(Cc2cnc(N)nc2N)cc(OC)c1OC [TMP, trimethoprim] | – | – | – | – | – | – | – | – | – | – | MIC ([1]; Staphylococcus aureus, ATCC43300, read-out: MIC Sa43300): 0.312 µg/mL (≈ 1.08 µM); MIC (Mtb): 256 µg/mL (≈ 882 µM); MIC E. coli [3]: 0.3125 µg/mL (≈ 1.08 µM); MIC MRSA [4]: 0.3125 µg/mL (≈ 1.08 µM); MIC (Sa(H30N) strain [5]): 2.5 µg/mL (≈ 8.61 µM)
